Biological target: T1, 3-phosphoinositide-dependent protein kinase 1 (Homo sapiens, UniProt O15530)
T1 sequence (O15530 whole entry): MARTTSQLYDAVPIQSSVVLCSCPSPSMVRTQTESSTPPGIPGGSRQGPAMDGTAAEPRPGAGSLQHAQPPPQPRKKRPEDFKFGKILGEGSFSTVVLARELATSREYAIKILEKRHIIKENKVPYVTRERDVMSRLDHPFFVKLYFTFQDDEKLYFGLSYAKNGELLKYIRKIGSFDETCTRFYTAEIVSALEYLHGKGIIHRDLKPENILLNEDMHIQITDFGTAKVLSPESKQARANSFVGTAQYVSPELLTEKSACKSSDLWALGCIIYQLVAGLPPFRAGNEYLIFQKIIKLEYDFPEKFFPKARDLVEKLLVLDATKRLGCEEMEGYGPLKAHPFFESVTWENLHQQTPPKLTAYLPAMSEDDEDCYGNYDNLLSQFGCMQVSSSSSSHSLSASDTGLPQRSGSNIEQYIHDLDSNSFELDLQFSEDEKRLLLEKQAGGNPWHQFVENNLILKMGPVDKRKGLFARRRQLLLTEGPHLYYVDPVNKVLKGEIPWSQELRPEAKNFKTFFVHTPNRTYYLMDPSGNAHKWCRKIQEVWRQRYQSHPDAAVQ
Assay: Kinase Assay: A PDK1 kinase assay was performed as follows. […] PDK1 protein was divided into two fractions, one of which was subsequently dephosphorylated. To generate dephosphorylated PDK1, the PDK1 was reacted with GST-tagged lambda-phosphatase in vitro. GST was subsequently cleaved proteolytically for both phosphorylated and dephosphorylated PDK1. Protein preparations were run on glutathione Sepharose columns to remove GST and GST-tagged lambda-phosphatase, if present. […] Enzyme activity was determined in a coupled PDK1/AKT/FAM-crosstide assay using either phosphorylated or unphosphorylated PDK1 and phosphorylation of FAM-crosstide was determined by standard IMAP protocol (Molecular Devices). For inhibition studies, compounds were titrated 3-fold in DMSO and diluted 40-fold into assay buffer (10 mM Tris HCl pH7.2; 10 mM MgCl2; 0.01% Triton X-100; 1 mM DTT) containing PDK1, AKT2, and FAM-crosstide. […] To detect assay product, the kinase reaction was combined with Progressive Binding Solution (1:600 Progressive Binding Reagent, 50% Buffer A, 50% Buffer B, Molecular Devices) in a 1:3 ratio.

SMILES	IC50 [nM]
NC(=O)c1cc(-c2cccc(CNC(=O)c3cccn(Cc4ccc(F)c(F)c4)c3=O)c2)c[nH]1	< 500
CC(c1ccc(C(F)(F)F)cc1)n1cccc(C(=O)NCc2noc(-c3c[nH]c4ncccc34)n2)c1=O (configuration not stated)	< 500
O=C(NCc1cncc(-c2c[nH]c3ncccc23)c1)c1cccn(Cc2ccc(F)c(F)c2)c1=O	< 500
NC(=O)COc1cc(CNC(=O)c2cccn(Cc3ccc(F)c(F)c3)c2=O)cc(-c2c[nH]c3ncccc23)c1	< 500
CC(=O)NC[C@@H](NC(=O)c1cccn(Cc2ccc(F)c(F)c2)c1=O)c1nc(-c2c[nH]c3ncccc23)cs1	< 500
O=C(NCc1cc(OCC(O)CO)cc(-c2c[nH]c3ncccc23)c1)c1cccn(Cc2ccc(F)c(F)c2)c1=O (configuration not stated)	< 500
CC(C)Oc1cc(CNC(=O)c2cccn(Cc3cc(F)c(F)c(F)c3)c2=O)cc(-c2c[nH]c3ncccc23)c1	< 500
O=C(NCc1cc(OC2CCCCC2)cc(-c2c[nH]c3ncccc23)c1)c1cccn(Cc2ccc(F)c(F)c2)c1=O	< 500
COc1ccc(CNC(=O)c2cccn(Cc3ccc(F)c(F)c3)c2=O)cc1-c1c[nH]c2ncccc12	< 500
O=C(N[C@@H](COc1ccc2[nH]c(=O)[nH]c2c1)C1CC1)c1cccn(Cc2cc(F)c(F)c(F)c2)c1=O	< 500
CS(=O)(=O)N1CCC(Oc2cc(CNC(=O)c3cccn(Cc4ccc(F)c(F)c4)c3=O)cc(-c3c[nH]c4ncccc34)c2)CC1	< 500
O=C(NCc1noc(-c2c[nH]c3ncccc23)n1)c1cccn(Cc2ccc(F)c(F)c2)c1=O	< 500
COc1ccc(-c2c[nH]c3ncccc23)cc1CNC(=O)c1cccn(Cc2ccc(F)c(F)c2)c1=O	< 500
NC(=O)c1cc(-c2c[nH]c3ncccc23)cc(CNC(=O)c2cccn(Cc3ccc(F)c(F)c3)c2=O)n1	< 500
Nc1ncnc2ccc(-c3cccc(CNC(=O)c4cccn(Cc5ccc(F)c(F)c5)c4=O)c3)cc12	< 500
Nc1ncnc2ccc(-c3ccc(CNC(=O)c4cccn(Cc5ccc(F)c(F)c5)c4=O)s3)cc12	< 500
CNC(=O)c1cc(-c2cccc(CNC(=O)c3cccn(Cc4ccc(F)c(F)c4)c3=O)c2)c[nH]1	< 500
Cc1[nH]c2ncccc2c1-c1cccc(CNC(=O)c2cccn(Cc3ccc(F)c(F)c3)c2=O)c1	< 500
O=C(NCc1cc(OS(=O)(=O)c2ccccc2)cc(-c2c[nH]c3ncccc23)c1)c1cccn(Cc2ccc(F)c(F)c2)c1=O	< 500
O=C(NCc1coc(-c2c[nH]c3ncccc23)n1)c1cccn(Cc2ccc(F)c(F)c2)c1=O	< 500
O=C(NCc1ccc(OCCN2CCOCC2)c(-c2c[nH]c3ncccc23)c1)c1cccn(Cc2ccc(F)c(F)c2)c1=O	< 500
O=C(NCc1cc(OC2CCNCC2)cc(-c2c[nH]c3ncccc23)c1)c1cccn(Cc2ccc(F)c(F)c2)c1=O	< 500
COc1cnc2[nH]cc(-c3ccc(CNC(=O)c4cccn(Cc5ccc(F)c(F)c5)c4=O)s3)c2c1	< 500
CC(C)(C)OC(=O)N1CCC(Oc2cc(CNC(=O)c3cccn(Cc4ccc(F)c(F)c4)c3=O)cc(-c3c[nH]c4ncccc34)c2)CC1	< 500
O=C(NCc1cccc(-c2c[nH]c3ncc(C(=O)N4CCOCC4)cc23)c1)c1cccn(Cc2ccc(F)c(F)c2)c1=O	< 500
CN(C)C(=O)COc1cc(CNC(=O)c2cccn(Cc3ccc(F)c(F)c3)c2=O)cc(-c2c[nH]c3ncccc23)c1	< 500

SMILES	IC50 [nM]
C[C@H](COc1ccc2[nH]c(=O)[nH]c2c1)NC(=O)c1cccn(Cc2cc(F)c(F)c(F)c2)c1=O	< 500
O=C(NCc1cc(-c2c[nH]c3ncccc23)cc[n+]1[O-])c1cccn(Cc2ccc(F)c(F)c2)c1=O	< 500
O=C(NCc1cc(-c2c[nH]c3ncccc23)ccc1O)c1cccn(Cc2ccc(F)c(F)c2)c1=O	< 500
O=C(NCCOc1ccc2[nH]c(=O)[nH]c2c1F)c1cccn(Cc2ccc(F)c(F)c2)c1=O	< 500
O=C(Nc1ccnc2ccc(-c3c[nH]c4ncccc34)cc12)c1cccn(Cc2ccc(F)c(F)c2)c1=O	< 500
O=C(NCc1ccc(O)c(-c2c[nH]c3ncccc23)c1)c1cccn(Cc2ccc(F)c(F)c2)c1=O	< 500
CCn1nc(NC(=O)c2cccn(Cc3ccc(F)c(F)c3)c2=O)c2cc(-c3c[nH]c4ncccc34)ccc21	< 500
O=C(NCc1cccc(-c2c[nH]c3nccc(F)c23)c1)c1cccn(Cc2ccc(F)c(F)c2)c1=O	< 500
NC(=O)[C@H](COc1ccc2[nH]c(=O)[nH]c2c1)NC(=O)c1cccn(Cc2cc(F)c(F)c(F)c2)c1=O	< 500
O=C(NCc1cccc(-c2c[nH]c(C(=O)N3CCOCC3)c2)c1)c1cccn(Cc2ccc(F)c(F)c2)c1=O	< 500
O=C(NCc1cccc(-c2c[nH]c3ncc(C(F)(F)F)cc23)c1)c1cccn(Cc2ccc(F)c(F)c2)c1=O	< 500
Cn1nc(NC(=O)c2cccn(Cc3ccc(F)c(F)c3)c2=O)c2cc(-c3c[nH]c4ncccc34)ccc21	< 500
O=C(NC/C=C/c1ccc2[nH]c(=O)[nH]c2c1)c1cccn(Cc2cc(F)c(F)c(F)c2)c1=O	< 500
COc1cnc2[nH]cc(-c3cccc(CNC(=O)c4cccn(Cc5ccc(F)c(F)c5)c4=O)c3)c2c1	< 500
O=C(NC1CC1)c1cnc2[nH]cc(-c3cccc(CNC(=O)c4cccn(Cc5ccc(F)c(F)c5)c4=O)c3)c2c1	< 500
O=C(NCc1noc(-c2c[nH]c3ncccc23)n1)c1cccn(Cc2cc(F)c(F)c(F)c2)c1=O	< 500
O=C(NCc1cccc(-c2c[nH]c3ncccc23)c1)c1cccn(Cc2ccc(C(F)(F)F)cc2)c1=O	< 500
O=C(N[C@@H](COc1ccc2[nH]c(=O)[nH]c2c1)c1ccccc1Cl)c1cccn(Cc2cc(F)c(F)c(F)c2)c1=O	< 500
O=C(O)Cn1nc(NC(=O)c2cccn(Cc3ccc(F)c(F)c3)c2=O)c2cc(-c3c[nH]c4ncccc34)ccc21	< 500
O=C(NCc1cccc(-c2c[nH]c3ncc(O)cc23)c1)c1cccn(Cc2ccc(F)c(F)c2)c1=O	< 500
O=C(NCc1cc(OC2CCCC2)cc(-c2c[nH]c3ncccc23)c1)c1cccn(Cc2ccc(F)c(F)c2)c1=O	< 500
O=C(NCc1noc(-c2c[nH]c3ncccc23)n1)c1cc(Cl)cn(Cc2ccc(C(F)(F)F)cc2)c1=O	< 500
O=C(NCc1cccc(-c2c[nH]c3ncc(C(=O)N4CCNCC4)cc23)c1)c1cccn(Cc2ccc(F)c(F)c2)c1=O	< 500
O=C(O)c1cc(-c2c[nH]c3ncccc23)cc(CNC(=O)c2cccn(Cc3ccc(F)c(F)c3)c2=O)n1	< 500
C=C[C@H](COc1ccc2[nH]c(=O)[nH]c2c1)NC(=O)c1cccn(Cc2cc(F)c(F)c(F)c2)c1=O	< 500
CN1CCC(Oc2cc(CNC(=O)c3cccn(Cc4ccc(F)c(F)c4)c3=O)cc(-c3c[nH]c4ncccc34)c2)CC1	< 500

— ChEMBL document CHEMBL5726715 (2018)
